Reference: patent publication US10618914B2 (UNIVERSITY OF PITTSBURGH—OF THE COMMONWEALTH SYSTEM OF …, priority 2015, dated 2020)
Where two headings read alike, the source gives them in different places.

Columns and labels:
Type in all cases: cell-based
[1] = system: Cal33 cells; test: Cal33 growth inhibition; details: for GI50: Table 5, * average of 2 experiments
[2] = system: STAT3; test: HCS STAT3 assay
[3] = system: STAT1; test: STAT1 assay (selectivity counter-screen)
[4] = Table 2, read-out: Cal33 (IC50)
[5] = Table 2, read-out: STAT3 (IC50)
[6] = Table 4, read-out: STAT3 IC50 (converted)
[7] = FIG. 3, read-out: STAT3 potency (IC50)
[8] = Table 5, * average of 2 experiments
[9] = Table 5, * average of 2 experiments, read-out: STAT3 IC50 (converted)
[10] = Homo sapiens, CAL-33, Table 1, read-out: Growth Inhibition Cal33 (mean IC50)
[11] = Table 1, read-out: STAT3 (mean IC50)

With `COc1ccc(C2=Nn3c(nnc3-c3[nH]nc4c3CCC4)SC2CCO)cc1` (stereo not drawn) [compound 10403] the IC50 [1, 4] was 0.93 µM and the IC50 [2, 5] was 49.2 µM.

`Clc1ccc(C2=Nn3c(nnc3-c3cc(-c4ccccc4)n[nH]3)SC2)s1` [10b] was tested, and the IC50 ([3]; Table 4) was greater than 50 µM and the IC50 [2, 6] was greater than 50 µM.

Work on `COCCC1Sc2nnc(-c3cc(-c4ccc(Cl)cc4)n[nH]3)n2N=C1c1ccc(OC)cc1` (stereo not drawn) [compound 10373] yielded an IC50 [1, 4] of 4.8 µM and an IC50 [2, 5] of 33.2 µM.

`c1ccc(C2=Nn3c(nnc3-c3[nH]nc4c3CCC4)SC2c2ccccc2)cc1` (racemic) [compound 10298] showed an IC50 [1, 4] of 1.1 µM and an IC50 [2, 5] of 26.5 µM.

Work on `CCN(CC)CCC1Sc2nnc(-c3cc(-c4ccccc4)n[nH]3)n2N=C1c1ccc(OC)cc1` (stereo not drawn) [compound 10380] yielded an IC50 [1, 4] of 3.7 µM, an IC50 [2, 7] of less than 10 µM and an IC50 [2, 5] of 8.8 µM.

Compound `COc1ccc(C2=Nn3c(nnc3-c3[nH]nc4c3CCC4)SC2CCN)cc1` (stereo not drawn) [compound 10383] has an IC50 [1, 4] of 2.5 µM and an IC50 [2, 5] of 31.2 µM.

`c1ccc(C2=Nn3c(nnc3-c3cc(-c4ccccc4)n[nH]3)SC2)cc1` [7b] showed an IC50 ([3]; Table 4) greater than 50 µM and an IC50 [2, 6] of 27 µM.

`COc1ccc(C2=Nn3c(nnc3-c3cc(-c4cccc(Cl)c4)n[nH]3)SC2C)cc1` (stereo not drawn) [compound 10539] gave an IC50 [1, 4] of 12.7 µM and an IC50 [2, 5] of 8.7 µM.

`COc1ccc(C2=Nn3c(nnc3-c3cc(-c4ccccc4)n[nH]3)SC2C)cc1OC` (stereo not drawn) [compound 10495] was tested, and the IC50 [1, 4] was 13.1 µM and the IC50 [2, 5] was 7.6 µM.

In the case of `CC1Sc2nnc(-c3nn(C)c4c3CCC4)n2N=C1c1ccc(Cl)c(Cl)c1` (stereo not drawn) [compound 10469], the IC50 [1, 4] is reported as 3.1 µM and the IC50 [2, 5] is reported as 7.8 µM.

`CCN(CC)c1ccc(C2=Nn3c(nnc3-c3[nH]nc4c3CCC4)SC2C)cc1` (stereo not drawn) [compound 10521] was tested, and the IC50 [1, 4] was 1 µM and the IC50 [2, 5] was 6.6 µM.

For `CC1(C)Sc2nnc(-c3[nH]nc4c3CCC4)n2N=C1c1ccc(Cl)c(Cl)c1` [Cmpd 32], the GI50 [1] was greater than 50 µM, the IC50 [3, 8] was greater than 50 µM and the IC50 [2, 9] was 18.6 µM.

In the case of `CC1Sc2nnc(-c3[nH]nc4c3CCC4)n2N=C1c1ccccc1` (racemic) [compound 10173], the IC50 [1, 4] is reported as 41.8 µM and the IC50 [2, 5] is reported as 18.2 µM.

`c1ccc(-c2cc(-c3nnc4n3N=C(c3ccncc3)CS4)[nH]n2)cc1` [9b] showed an IC50 ([3]; Table 4) greater than 50 µM and an IC50 [2, 6] greater than 50 µM.

`CC1Sc2nnc(-c3[nH]nc4c3CCC4)n2N=C1c1ccc(Cl)cc1` (stereo not drawn) [UPCDC10281] gave an IC50 [1, 10] of 0.44 µM, an IC50 ([1]; Homo sapiens, CAL-33, Table 2, read-out: Cal33 (IC50)) of 0.44 µM and an IC50 [2, 11] of 7.21 µM. For the same compound, the IC50 [2, 5] was 7.21 µM.

Work on `CC1Sc2nnc(-c3cc(-c4ccccc4)n[nH]3)n2N=C1c1ccccc1` (stereo not drawn) [Cmpd 21] yielded a GI50 [1] of 34.1 ± 8.7 µM, an IC50 [3, 8] of 15 µM and an IC50 [2, 9] of 3.4 µM.

With `COc1ccc(C2=Nn3c(nnc3C(C)C)SC2C)cc1` (stereo not drawn) [UPCDC10332] the IC50 [1, 10] was 0.16 µM and the IC50 [2, 11] was 14.3 µM.

With `CCN(CC)c1ccc(C2=Nn3c(nnc3-c3cc(-c4ccccc4)nn3C)SC2C)cc1` (stereo not drawn) [compound 10559] the IC50 [1, 4] was 27.5 µM and the IC50 [2, 5] was 5.7 µM.

In the case of `CC1Sc2nnc(-c3[nH]nc4c3CCC4)n2N=C1c1ccc(C(F)(F)F)cc1` (stereo not drawn) [compound 10470], the IC50 [1, 4] is reported as 1.4 µM and the IC50 [2, 5] is reported as 24.4 µM.

`CC1(C)Sc2nnc(-c3cc(-c4ccc(Cl)cc4)n[nH]3)n2N=C1c1ccccc1` [compound 10268] was tested, and the IC50 [1, 4] was 50 µM and the IC50 [2, 5] was 38.2 µM.

With `COc1ccc(C2=Nn3c(nnc3-c3cc(-c4ccccc4)n(C(C)=O)n3)SC2C)cc1` (stereo not drawn) [compound 10479] the IC50 [1, 4] was 38.1 µM and the IC50 [2, 5] was 7.9 µM.

Work on `COc1ccc(C2=Nn3c(nnc3-c3nn(C(=O)OC(C)(C)C)c4c3CCC4)SC2C)cc1` (stereo not drawn) [compound 10422] yielded an IC50 [1, 4] of 0.38 µM and an IC50 [2, 5] of 34.7 µM.

Compound `COC(=O)CC1Sc2nnc(-c3cc(-c4ccccc4)n[nH]3)n2N=C1c1ccccc1` (stereo not drawn) [compound 10423] has an IC50 [1, 4] of 37.9 µM and an IC50 [2, 5] of 17.9 µM.

Compound `C1CCC(C2=Nn3c(nnc3-c3[nH]nc4c3CCC4)SC2)CC1` [13a] has an IC50 ([3]; Table 4) greater than 50 µM and an IC50 [2, 6] greater than 30 µM.

`COc1ccc(C2=Nn3c(nnc3-c3cc(-c4ccccc4)n[nH]3)SC2CC(=O)N2CCCC2)cc1` (stereo not drawn) [compound 10426] showed an IC50 [1, 4] of 20.5 µM, an IC50 [2, 7] of less than 10 µM and an IC50 [2, 5] of 9.1 µM.

For `COCCC1Sc2nnc(-c3cc(-c4ccc(F)cc4)n[nH]3)n2N=C1c1ccc(OC)cc1` (stereo not drawn) [compound 10374], the IC50 [1, 4] was 14.4 µM and the IC50 [2, 5] was 8.5 µM.

In the case of `CC1Sc2nnc(-c3[nH]nc4c3CCC4)n2N=C1c1ccc(Cl)c(Cl)c1` (stereo not drawn) [Cmpd 19], the GI50 [1] is reported as 1.9 ± 1.2 µM, the IC50 [3, 8] is reported as greater than 50 µM and the IC50 [2, 9] is reported as 8.2 ± 2.2 µM.

`CC1(C)Sc2nnc(-c3[nH]nc4c3CCC4)n2N=C1c1ccc(Cl)c(Cl)c1` [compound 10283] showed an IC50 [1, 4] of 50 µM and an IC50 [2, 5] of 18.6 µM.

In the case of `Cc1ccc(C2=Nn3c(nnc3-c3[nH]nc4c3CCC4)SC2C)cc1` (stereo not drawn) [compound 10472], the IC50 [1, 4] is reported as 0.18 µM and the IC50 [2, 5] is reported as 41.1 µM.

With `CC1Sc2nnc(-c3cc(-c4ccccc4)n[nH]3)n2N=C1c1ccccc1` (stereo not drawn) [compound 10261] the IC50 [1, 4] was 40 µM and the IC50 [2, 5] was 12.3 µM.

Work on `COc1ccc(C2=Nn3c(nnc3-c3nn(Cc4ccccc4)c4c3CCC4)SC2C)cc1` (stereo not drawn) [compound 10439] yielded an IC50 [1, 4] of 1.7 µM and an IC50 [2, 5] of 7.6 µM.
